The numbers were not newly measured in paper PMC9959244, “Revisiting the Solubility–Permeability Relationship with Hydrophobic Drug Umifenovir in Pluronic Solutions: Impact of pH and Co-Solvent” (Pharmaceutics, 2023), which cites them from elsewhere.

Read-outs that look alike come from different tables or passages of the source.

On the set-up of series [1]: method as in PMID 33926020. Conditions: kneaded ternary complex with β-cyclodextrin and 1% poloxamer 188; cited from earlier work.
Details of series [2]: method as in doi:10.1016/S1773-2247(07)50022-5. Conditions: cited from earlier work.

Take `CCOC(=O)c1c(CSc2ccccc2)n(C)c2cc(Br)c(O)c(CN(C)C)c12.Cl` [arbidol hydrochloride]: the Solubility increase in series [1] is reported as 13.1 fold. In addition, in series [2] (solid dispersion with PEG 4000), the “Increase of dissolution at 3 min vs pure compound” value is 14.0 fold and the “Percent concentration after 3 min of dissolution” value was 53.6%. In series [2] (solid dispersion with PEG 8000), the “Increase of dissolution at 3 min vs pure compound” value is given as 15.4 fold and the “Percent concentration after 3 min of dissolution” value was 59.0%.
